The record followed here is PubChem BioAssay AID252 (DTP/NCI, 2004).

“And” between values parts separate entries of the source, which are not always exact repeats. Equal entries are not always repeated. Toxic doses and inconclusive results are not listed.

The assay has as its system BDF1 mice, intracerebral L1210 leukemia, survival T/C. Kind of assay: NCI In Vivo Anticancer Drug Screen. Data for tumor model L1210 Leukemia (intracerebral) in B6D2F1 (BDF1) mice. Particulars: higher = longer survival. In short, it runs like this:
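Readout is the T/C ratio: survival of compound-treated animals over that of vehicle-treated controls, in mice bearing transplantable tumour.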

Where [1] appears, read: endpoint: mean survival time, dose: 0.25 mg/kg/injection, schedule: Q01DX009 (ip), vehicle: saline.
Where [2] appears, read: endpoint: mean survival time, dose: 1.0 mg/kg/injection, schedule: Q01DX009 (ip), vehicle: saline.
Where [3] appears, read: endpoint: mean survival time, dose: 2.0 mg/kg/injection, schedule: Q01DX009 (ip), vehicle: saline.
[4] abbreviates: endpoint: mean survival time, dose: 10.0 mg/kg/injection, schedule: Q01DX009 (ip), vehicle: saline.
Setting [5] is: endpoint: mean survival time, dose: 10.0 mg/kg/injection, schedule: Q01DX009 (sc), vehicle: saline.
Setting [6] is: endpoint: mean survival time, dose: 20.0 mg/kg/injection, schedule: Q01DX009 (ip), vehicle: saline.
The mark [7] stands for this setting: endpoint: mean survival time, dose: 20.0 mg/kg/injection, schedule: Q01DX009 (sc), vehicle: saline.
The mark [8] stands for this setting: endpoint: mean survival time, dose: 40.0 mg/kg/injection, schedule: Q01DX009 (sc), vehicle: saline.

As for `CNNCc1ccc(C(=O)NC(C)C)cc1`, the T/C (endpoint: mean survival time, dose: 25.0 mg/kg/injection, schedule: Q01DX009 (ip), vehicle: saline) is 105 % of control; the T/C (endpoint: mean survival time, dose: 40.0 mg/kg/injection, schedule: Q01DX Z (ip), vehicle: saline) is 122 % of control; the T/C (endpoint: mean survival time, dose: 50.0 mg/kg/injection, schedule: Q01DX009 (ip), vehicle: saline) is 108 % of control; the T/C (endpoint: mean survival time, dose: 64.0 mg/kg/injection, schedule: Q01DX010 (oral), vehicle: clinical formulation) was 102 % of control; the T/C (endpoint: mean survival time, dose: 160.0 mg/kg/injection, schedule: Q01DX Z (ip), vehicle: saline) was 155 % of control; the T/C (endpoint: median survival time, dose: 0.5 mg/kg/injection, schedule: Q01DX010 (ip), vehicle: clinical formulation) is 105 % of control. Further, the T/C runs as follows: (endpoint: median survival time, dose: 0.5 mg/kg/injection, schedule: Q01DX010 (ip), vehicle: saline) 106 % of control; (endpoint: median survival time, dose: 1.0 mg/kg/injection, schedule: Q01DX010 (ip), vehicle: clinical formulation) 105 % of control; (endpoint: median survival time, dose: 1.0 mg/kg/injection, schedule: Q01DX010 (ip), vehicle: saline) 103 % of control; (endpoint: median survival time, dose: 1.0 mg/kg/injection, schedule: Q01DX010 (oral), vehicle: clinical formulation) 105 % of control; (endpoint: median survival time, dose: 2.0 mg/kg/injection, schedule: Q01DX010 (ip), vehicle: clinical formulation) 103 % of control; (endpoint: median survival time, dose: 2.0 mg/kg/injection, schedule: Q01DX010 (ip), vehicle: saline) 106 % of control. The T/C runs as follows: (endpoint: median survival time, dose: 2.0 mg/kg/injection, schedule: Q01DX010 (oral), vehicle: clinical formulation) 103 % of control; (endpoint: median survival time, dose: 4.0 mg/kg/injection, schedule: Q01DX010 (ip), vehicle: clinical formulation) 99 % of control; (endpoint: median survival time, dose: 4.0 mg/kg/injection, schedule: Q01DX010 (ip), vehicle: saline) 106 % of control; (endpoint: median survival time, dose: 4.0 mg/kg/injection, schedule: Q01DX010 (oral), vehicle: clinical formulation) 105 % of control; (endpoint: median survival time, dose: 8.0 mg/kg/injection, schedule: Q01DX010 (ip), vehicle: clinical formulation) 101 % of control; (endpoint: median survival time, dose: 8.0 mg/kg/injection, schedule: Q01DX010 (ip), vehicle: saline) 111 % of control. Besides, the T/C reads like this: (endpoint: median survival time, dose: 8.0 mg/kg/injection, schedule: Q01DX010 (oral), vehicle: clinical formulation) 95 % of control; (endpoint: median survival time, dose: 16.0 mg/kg/injection, schedule: Q01DX010 (ip), vehicle: clinical formulation) 103 % of control; (endpoint: median survival time, dose: 16.0 mg/kg/injection, schedule: Q01DX010 (ip), vehicle: saline) 109 % of control; (endpoint: median survival time, dose: 16.0 mg/kg/injection, schedule: Q01DX010 (oral), vehicle: clinical formulation) 92 % of control; (endpoint: median survival time, dose: 32.0 mg/kg/injection, schedule: Q01DX010 (ip), vehicle: clinical formulation) 101 % of control; (endpoint: median survival time, dose: 32.0 mg/kg/injection, schedule: Q01DX010 (ip), vehicle: saline) 104 % of control. Besides, the T/C reads like this: (endpoint: median survival time, dose: 32.0 mg/kg/injection, schedule: Q01DX010 (oral), vehicle: clinical formulation) 97 % of control; (endpoint: median survival time, dose: 64.0 mg/kg/injection, schedule: Q01DX010 (oral), vehicle: clinical formulation) 109 % of control; (endpoint: median survival time, dose: 128.0 mg/kg/injection, schedule: Q01DX010 (oral), vehicle: clinical formulation) 104 % of control.
Take `CCOC1=C(N2CC2)C(=O)C(OCC)=C(N2CC2)C1=O`: the T/C under setting [1] was 96 % of control; the T/C (endpoint: mean survival time, dose: 0.5 mg/kg/injection, schedule: Q01DX009 (ip), vehicle: saline) is 109 % of control and 93 % of control; the T/C under setting [2] is 108 % of control and 98 % of control; the T/C under setting [3] was 112 % of control; the T/C (endpoint: mean survival time, dose: 4.0 mg/kg/injection, schedule: Q01DX009 (ip), vehicle: saline) was 94 % of control.
As for `Cc1nc(N)nc(N)c1-c1ccc(Cl)c(Cl)c1`, the T/C (endpoint: mean survival time, dose: 1.08 mg/kg/injection, schedule: Q01DX009 (ip), vehicle: saline) is 105 % of control; the T/C (endpoint: mean survival time, dose: 1.8 mg/kg/injection, schedule: Q01DX009 (ip), vehicle: saline) was 95 % of control; the T/C (endpoint: mean survival time, dose: 3.0 mg/kg/injection, schedule: Q01DX009 (ip), vehicle: saline) was 98 % of control; the T/C (endpoint: mean survival time, dose: 5.0 mg/kg/injection, schedule: Q01DX009 (ip), vehicle: saline) is 97 % of control; the T/C (endpoint: mean survival time, dose: 8.4 mg/kg/injection, schedule: Q01DX009 (ip), vehicle: saline) is 111 % of control; the T/C (endpoint: mean survival time, dose: 8.4 mg/kg/injection, schedule: Q04DX003 (ip), vehicle: saline) is 104 % of control. Besides, the T/C (endpoint: mean survival time, dose: 14.0 mg/kg/injection, schedule: Q04DX003 (ip), vehicle: saline) was 96 % of control; the T/C (endpoint: mean survival time, dose: 23.0 mg/kg/injection, schedule: Q04DX003 (ip), vehicle: saline) is 103 % of control; the T/C (endpoint: mean survival time, dose: 39.0 mg/kg/injection, schedule: Q04DX003 (ip), vehicle: saline) is 93 % of control; the T/C (endpoint: mean survival time, dose: 65.0 mg/kg/injection, schedule: Q04DX003 (ip), vehicle: saline) was 103 % of control; the T/C (endpoint: median survival time, dose: 0.62 mg/kg/injection, schedule: Q01DX009 (ip), vehicle: saline) was 106 % of control; the T/C (endpoint: median survival time, dose: 1.25 mg/kg/injection, schedule: Q01DX009 (ip), vehicle: saline) is 115 % of control. The T/C reads like this: (endpoint: median survival time, dose: 5.0 mg/kg/injection, schedule: Q01DX009 (ip), vehicle: saline) 117 % of control; (endpoint: median survival time, dose: 10.0 mg/kg/injection, schedule: Q01DX009 (ip), vehicle: saline) 104 % of control.
Consider `O=NN(CCF)C(=O)NC1CSCSC1`, for which the T/C was 111 % of control (endpoint: mean survival time, dose: 3.7 mg/kg/injection, schedule: Q01DX001 (ip), vehicle: other); 120 % of control and 123 % of control (endpoint: mean survival time, dose: 7.0 mg/kg/injection, schedule: Q01DX001 (ip), vehicle: other); 163 % of control (endpoint: mean survival time, dose: 15.0 mg/kg/injection, schedule: Q01DX001 (ip), vehicle: other); 176 % of control (endpoint: mean survival time, dose: 28.0 mg/kg/injection, schedule: Q01DX001 (ip), vehicle: other); 177 % of control and 278 % of control (endpoint: mean survival time, dose: 31.0 mg/kg/injection, schedule: Q01DX001 (ip), vehicle: other); 291 % of control (endpoint: mean survival time, dose: 41.0 mg/kg/injection, schedule: Q01DX001 (ip), vehicle: other). Besides, where the note is “endpoint: mean survival time, dose: 62.0 mg/kg/injection, schedule: Q01DX001 (ip), vehicle: other”, the T/C is 290 % of control and 337 % of control.
On to `CN(N=O)C(=O)NC(N)=O`, for which the T/C is, setting by setting: (endpoint: mean survival time, dose: 33.0 mg/kg/injection, schedule: Q01DX001 (ip), vehicle: carboxymethylcellulose (CMC)) 102 % of control; (endpoint: mean survival time, dose: 50.0 mg/kg/injection, schedule: Q01DX001 (ip), vehicle: carboxymethylcellulose (CMC)) 105 % of control; (endpoint: mean survival time, dose: 75.0 mg/kg/injection, schedule: Q01DX001 (ip), vehicle: carboxymethylcellulose (CMC)) 114 % of control; (endpoint: mean survival time, dose: 112.0 mg/kg/injection, schedule: Q01DX001 (ip), vehicle: carboxymethylcellulose (CMC)) 115 % of control.
As for `Cc1cccc2c(Nc3ccc(NS(C)(=O)=O)cc3)c3ccccc3nc12`, the T/C by setting is: under setting [4], 100 % of control; under setting [5], 96 % of control; under setting [6], 110 % of control; under setting [7], 101 % of control; (endpoint: mean survival time, dose: 40.0 mg/kg/injection, schedule: Q01DX009 (ip), vehicle: saline) 112 % of control; under setting [8], 97 % of control. In addition, the T/C was 87 % of control (endpoint: mean survival time, dose: 80.0 mg/kg/injection, schedule: Q01DX009 (ip), vehicle: saline) and 104 % of control (endpoint: mean survival time, dose: 80.0 mg/kg/injection, schedule: Q01DX009 (sc), vehicle: saline).
Turning to `Cc1cccc2c(Nc3ccc(NS(C)(=O)=O)cc3)c3ccc([N+](=O)[O-])cc3nc12`, the T/C was 114 % of control under setting [4]; 104 % of control under setting [5]; 94 % of control under setting [6]; 101 % of control under setting [7]; 96 % of control under setting [8].
As for `O=NN(CCCl)C(=O)N[C@@H]1CCC[C@@H](O)C1`, the T/C is, setting by setting: (endpoint: mean survival time, dose: 8.0 mg/kg/injection, schedule: Q01DX001 (ip), vehicle: saline with Tween-80) 118 % of control; (endpoint: mean survival time, dose: 20.0 mg/kg/injection, schedule: Q01DX001 (ip), vehicle: saline with Tween-80) 361 % of control; (endpoint: mean survival time, dose: 30.0 mg/kg/injection, schedule: Q01DX001 (ip), vehicle: saline with Tween-80) 413 % of control; (endpoint: mean survival time, dose: 44.0 mg/kg/injection, schedule: Q01DX001 (ip), vehicle: saline with Tween-80) 260 % of control.
In the case of `COCCOC1=C(N2CC2)C(=O)C(OCCOC)=C(N2CC2)C1=O`, the T/C reads like this: under setting [1], 98 % of control and 100 % of control; under setting [2], 105 % of control and 109 % of control; under setting [3], 104 % of control and 112 % of control and 114 % of control.
